EP1202120A2, “Charge transport compound, elctrophotographic organophotoreceptor comprising the same, and electrographic imaging apparatus and method” (SAMSUNG ELECTRONICS CO., LTD., priority 2000, dated 2002)
Entries after “also recorded” stand apart in the source; their conditions may differ.

Legend:
[1] = Thermal transitions by differential scanning calorimetry (glass transition temperature); type: physicochemical; conditions: DSC; for Tg with 50% PCZ: mixture with Polycarbonate Z binder; for Tg without binder: neat sample
Method: Thermal transition data for various charge transport compounds was collected using a TA Instruments Model 2929 Differential Scanning Calorimeter (New Castle, DE) equipped with a DSC cooling system (-70°C minimum temperature limit), and dry helium and nitrogen exchange gases. The calorimeter ran on a Thermal Analyst 2100 workstation with version 8.10B software. An empty aluminum pall was used as the reference.
Samples were tested both neat and as a mixture with Polycarbonate Z ("PCZ"). The neat samples were prepared by placing 4.0 to 8.0 mg of neat charge transport material into an aluminum sample pan and crimping the upper lid to produce a hermetically sealed sample for DSC testing. The results were normalized on a unit mass basis.
The Polycarbonate Z-mixed samples were prepared by filling the bottom portion of the aluminum sample pan with a 15-20% solid solution of the charge transport material in Polycarbonate Z, followed by air-drying overnight. Each air-dried sample was then placed in a convection oven at 50-55°C for 24-48 hours to fully remove the solvent, after which the upper sample lid was crimped on to produce a sealed sample for DSC testing. Each sample size was in the range of 7.0-15.0 mg. The results were normalized on a unit mass basis.
Each sample was subjected to the following protocol to evaluate its thermal transition behavior: • 1. Equilibrate at 0°C (Default--Nitrogen Heat Exchange Gas); • 2. Isothermal for 5 min.; • 3. External Event: Nitrogen Heat Exchange Gas; • 4. Ramp 10.0°C/min to a temperature 30°C above the melting point of the charge transport material; • 5. External Event: Helium Heat Exchange Gas; • 6. Isothermal for 5 min.; • 7. Ramp 10.0°C/min to 0°C; • 8. External Event: Nitrogen Heat Exchange Gas; • 9. Isothermal for 5 min.; • 10. Ramp 10.0°C/min to a temperature 40°C above the melting point of the charge transport material; • 11. External Event: Helium Heat Exchange Gas; • 12. Isothermal for 5 min.; • 13. Ramp 10.0°C/min to 0°C; • 14. External Event: Nitrogen Heat Exchange Gas; • 15. Isothermal for 5 min; • 16. Ramp 10.0°C/min to 275°C.
The first cycle (steps 1-7) is used to (a) remove the thermal history of the sample, (b) obtain the melting transition for crystalline charge transport materials, and (c) obtain a homogeneous charge transport material/Polycarbonate Z mixture in the event the charge transport material is crystallized during sample preparation. A homogeneous mixture can be obtained as long as the charge transport material (molten or casted) is miscible with the Polycarbonate-Z.
The second cycle (steps 8-13) is used to identify the glass transition temperature and the recrystallization or melting transitions of charge transport materials.
The third cycle (steps 14-16) is used to report the final thermal transitions.
All temperatures are reported in °C. The abbreviation "CTM" indicates charge transport compounds. The abbreviation "PCZ" indicates the Polycarbonate Z binder.

[2] = Ionization potential by electron photoemission in air; type: physicochemical; conditions: CTM layer without binder; error ±0.03 eV
Method: Samples for ionization potential (Ip) measurements were prepared by dissolving compounds (B), (C), (E), (F), (G), and (H) and Comparative Example A separately in tetrahydrofuran. Each solution was hand-coated on an aluminized polyester substrate that was precision coated with a methylcellulose-based adhesive sub-layer to form a charge transport material (CTM) layer. The role of this sub-layer was to improve adhesion of the CTM layer, to retard crystallization of CTM, and to eliminate the electron photoemission from the Al layer through possible CTM layer defects. No photoemission was detected from the Al layer through the sub-layer at illumination with up to 6.4 eV quantum energy light. In addition, the adhesive sub-layer was conductive enough to avoid charge accumulation on it during measurement. The thickness of both the sub-layer and CTM layer was about 0.4 µm. No binder material was used in the preparation of the samples for Ip measurements. In most cases, the thin CTM layers were in a meta-stable amorphous phase, delaying crystallization for several hours, so that the measurement of the samples was possible.
The ionization potential was measured by the electron photoemission in an air method similar to that described in "Ionization Potential of Organic Pigment Film by Atmospheric Photoelectron Emission Analysis", Electrophotography, 28, No. 4, p. 364. (1989) by E. Miyamoto, Y. Yamaguchi, and M. Yokoyama, which is hereby incorporated by reference. The samples were illuminated with monochromatic light from a quartz monochromator with a deuterium lamp source. The power of the incident light beam was 2-5×10^-8 W. The negative voltage of -300 V was supplied to the sample substrate. The counter-electrode with the 4.5×15 mm^2 slit for illumination was placed at 8 mm distance from the sample surface. The counter-electrode was connected to the input of the BK2-16 type electrometer, working in the open input regime, for the photocurrent measurement. A photocurrent of 10^-15-10^-12 amp was flowed in the circuit under illumination. The photocurrent, I, was strongly dependent on the incident light photon energy hν. The I^0.5=f(hν) dependence was plotted. Usually the dependence of the square root of photocurrent on incident light quantum energy is well described by linear relationship near the threshold [see references "Ionization Potential of Organic Pigment Film by Atmospheric Photoelectron Emission Analysis", Electrophotography, 28, No. 4, p. 364. (1989) by E. Miyamoto, Y. Yamaguchi, and M. Yokoyama; and "Photoemission in Solids", Topics in Applied Physics, 26, 1-103. (1978) by M. Cordona and L. Ley]. The linear part of this dependence was extrapolated to the hν axis, and Ip value was determined as the photon energy at the interception point.

[3] = Solubility testing in tetrahydrofuran at room temperature; conditions: tetrahydrofuran as solvent
Method: Solubility testing was performed for individual charge transport compounds at room temperature using tetrahydrofuran as a solvent. The solubility was determined as the percent solids of saturated solution. In general, it is desirable to maximize the solubility value.

Compound	Tg with 50% PCZ [1]	Tg without binder [1]	lp (ionization potential) [2]	Solubility [3]
CCCCCCCn1c2ccccc2c2cc(C=NN(CCCCCN(N=Cc3ccc4c(c3)c3ccccc3n4CCCCCCC)c3ccccc3)c3ccccc3)ccc21 [F]	78.3 °C	44.5 °C	5.23 eV	
CCCCCCCn1c2ccccc2c2cc(C=NN(CCCCCCCCCCN(N=Cc3ccc4c(c3)c3ccccc3n4CCCCCCC)c3ccccc3)c3ccccc3)ccc21 [E]	56.9 °C	29.3 °C	5.38 eV	
CCn1c2ccccc2c2cc(C=NN(CCCCCCCCCCN(N=Cc3ccc4c(c3)c3ccccc3n4CC)c3ccccc3)c3ccccc3)ccc21 [B]	83.7 °C	46 °C	5.44 eV	
CCn1c2ccccc2c2cc(C=NN(CCCCCN(N=Cc3ccc4c(c3)c3ccccc3n4CC)c3ccccc3)c3ccccc3)ccc21 [C]	102.5 °C	84.4 °C	5.34 eV	
CCCCn1c2ccccc2c2cc(/C=N/N(CCCCCCN(/N=C/c3ccc4c(c3)c3ccccc3n4CCCC)c3ccccc3)c3ccccc3)ccc21 [H]			5.35, layer with crystal inclusions eV	limited solubility; also recorded: Insoluble
CCn1c2ccccc2c2cc(C=NN(CCCCN(N=Cc3ccc4c(c3)c3ccccc3n4CC)c3ccccc3)c3ccccc3)ccc21 [D]		79.1 °C		
